We go through 32 compounds from US10059720B2, “Pyridine derivative” (Astellas Pharma Inc., priority 2014, dated 2018).

Structures are written as SMILES. Structures can show the parent of a compound that is named as a salt. Where two headings read alike, the source gives them in different places.

Broadly, the IC50 is the concentration needed to halve the response being measured.

The target of data set [1] is IRAP (Rattus norvegicus (Rat), UniProt P97629). Kind of data set: Inhibition of IRAP activity (AVP degradation by rat epididymal fat pad microsomes, MALDI-MS). Particulars: read-out: IRAP IC50.
A short description of data set [2]: Antidiuresis test in continuously hydrated rats with additional water loading (oral administration). Format: in vivo, Male Wistar rats. Particulars: for change of plasma sodium level (in words): after three hours and four hours of the administration, additional water loads; for urine production after additional water loads: groups with additional water loads (15 mL/kg at 2 h and 3 h); for urine production after additional water loads / plasma sodium level, 3 hours after administration / plasma sodium level, 4 hours after administration / urine production: EX-a 100 mg/kg, EX-b 30 mg/kg; for urine production after additional water loads / urine production: dDAVP 30 μg/kg oral; for plasma sodium level, 3 hours after administration / plasma sodium level, 4 hours after administration: groups with additional water loads, oral, dDAVP 30 μg/kg; for urine production: groups without additional water loads, after two hours of the administration, maintained until four hours. The method, then:
FIG. 1 is a graph showing temporal changes in urine volumes of individual groups in the pharmacological test (4): antidiuresis test in continuously hydrated rats with additional water loading. The vertical axis represents urine volume (mL/30 min) and the horizontal axis represents elapsed time (hr) from the administration of the test compound. Groups represented by “ . . . +Water” are water-loaded groups. The arrows in the horizontal axis represent the time points of additional water-loading.
(4) Antidiuresis Test in Continuously Hydrated Rats with Additional Water Loading (Oral Administration)
Male Wistar rats were used in the test. Initially, water load with 15 mL/kg of distilled water was forcedly administered to the rats. Every 30 minutes after loading water, urine volume collected during 30 minutes was measured and distilled water was forcedly administered to the rats in an amount equal to the urine volume excreted during the last 30 minutes. This water load procedure was repeated to the termination of the test to maintain the diuretic state. […] The individual groups were further divided into two subgroups, and additional distilled water of 15 mL/kg load was forcedly administered to one of the subgroups two times, i.e. at two hours and three hours after the administration. For comparison, the Vehicle group administered only with the vehicle was also subjected to the additional administrations of water load. Blood was collected from a half of the rats in each group subjected to additional administrations of water load, at three hours after the administration (immediately before the second additional water load) and from the other half at four hours after the administration, and plasma sodium levels were measured with an automatic electrolyte analyzer to determine the plasma sodium levels at three hours and four hours after the administration, respectively (each group consisted of seven to eight rats). Changes in the urine volume in individual groups are shown in FIG. 1, and the plasma sodium levels of the group administered with additional water loads are shown in Table 4.

Where [3] appears, read: rat fat pad microsomes, AVP 25 μM, 1 h at 37° C.

Sequence of IRAP (P97629 whole entry): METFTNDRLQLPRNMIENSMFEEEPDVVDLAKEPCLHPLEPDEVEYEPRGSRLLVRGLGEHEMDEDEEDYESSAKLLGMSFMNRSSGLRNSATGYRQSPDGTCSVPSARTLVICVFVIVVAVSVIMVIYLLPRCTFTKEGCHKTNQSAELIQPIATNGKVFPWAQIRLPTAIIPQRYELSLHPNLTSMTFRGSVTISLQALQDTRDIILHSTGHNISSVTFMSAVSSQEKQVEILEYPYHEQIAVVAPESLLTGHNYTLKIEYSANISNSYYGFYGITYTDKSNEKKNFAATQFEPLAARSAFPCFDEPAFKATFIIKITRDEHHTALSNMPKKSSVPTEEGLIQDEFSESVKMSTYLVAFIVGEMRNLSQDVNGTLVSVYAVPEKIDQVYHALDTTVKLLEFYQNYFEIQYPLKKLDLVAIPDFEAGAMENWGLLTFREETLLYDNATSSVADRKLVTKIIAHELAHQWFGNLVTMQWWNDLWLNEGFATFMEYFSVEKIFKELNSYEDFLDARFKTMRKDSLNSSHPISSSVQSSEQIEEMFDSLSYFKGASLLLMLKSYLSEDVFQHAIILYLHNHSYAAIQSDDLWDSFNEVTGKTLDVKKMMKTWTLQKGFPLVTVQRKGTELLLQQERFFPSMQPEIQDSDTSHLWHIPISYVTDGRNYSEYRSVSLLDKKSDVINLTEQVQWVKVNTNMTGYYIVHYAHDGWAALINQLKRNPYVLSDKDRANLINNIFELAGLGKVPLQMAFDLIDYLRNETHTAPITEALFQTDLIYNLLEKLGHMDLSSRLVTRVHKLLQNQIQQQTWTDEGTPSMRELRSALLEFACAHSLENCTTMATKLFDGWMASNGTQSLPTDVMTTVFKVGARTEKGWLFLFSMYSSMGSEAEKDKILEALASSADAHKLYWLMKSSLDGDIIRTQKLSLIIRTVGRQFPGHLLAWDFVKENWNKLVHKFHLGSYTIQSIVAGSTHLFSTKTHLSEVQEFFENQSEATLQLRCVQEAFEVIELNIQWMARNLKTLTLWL

In the case of `NC(COc1ccccc1Br)C(O)(Cc1cc(OC2CCCCC2)ccn1)C(=O)O` (centres unmarked) [Example 71], the IC50 in data set [1] (setting [3]) amounted to 0.015 µM.
Still for that read-out and setting: in the case of `N[C@@H](COc1cccc(Br)c1)[C@](O)(Cc1cc(OC2CCCCC2)ccn1)C(=O)O` [Example 70] it was 0.013 µM.
For the compound `CC(C)C[C@H](N)[C@](O)(Cc1cc(O)ccn1)C(=O)O` [7(2), (2R,3S)-3-amino-2-hydroxy-2-[(4-hydroxypyridin-2-yl)methyl]-5-methylhexanoic acid], the IC50 in data set [1] (setting [3]) amounted to 0.2 µM.
The same measure, in the same setting: in the case of `COCc1ccc([C@H](N)[C@](O)(Cc2cc(OC3CCCCC3)ccn2)C(=O)O)cc1` [Example 50] it was 0.014 µM; in that of `CS(=O)(=O)c1ccc(-c2ccc([C@H](N)[C@](O)(Cc3cc(OC4CCCCC4)ccn3)C(=O)O)cc2)cc1` [Example 45], 0.00042 µM.
Same read-out and setting: for `N[C@@H](/C=C/c1ccccc1)[C@](O)(Cc1cc(OC2CCCCC2)ccn1)C(=O)O` [Example 40] the value was 0.008 µM; for `C[C@H]1CC[C@H](Oc2ccnc(C[C@](O)(C(=O)O)[C@@H](N)Cn3cccn3)c2)CC1` [Example 85], 0.11 µM; for `COc1cc(C[C@](O)(C(=O)O)[C@@H](N)CC(C)C)ncc1Br` [Example 53], 0.29 µM.
Same read-out and setting: for `N[C@@H](COCc1ccccc1)[C@](O)(Cc1cc(OC2CCCCC2)ccn1)C(=O)O` [Example 51] the value was 0.013 µM.
For the compound `CC(C)C[C@H](N)[C@](O)(Cc1cc(O[C@H]2CC[C@H](C)CC2)ccn1)C(=O)O` (relative stereo) [EX-a, (2R,3S)-3-amino-2-hydroxy-5-methyl-2-({4-[(trans-4-methylcyclohexyl)oxy]pyridin-2-yl}methyl)hexanoic acid], in data set [2], the “change of plasma sodium level (in words)” value is reported as “slightly decreased”; the “urine production after additional water loads” value is “resumed after administration of the additional water loads”; the “plasma sodium level, 3 hours after administration” value (“plasma sodium level, 3 hours” for short) was 134.9 ± 0.4 mmol/L; the “plasma sodium level, 4 hours after administration” value (shortened to “plasma sodium level, 4 hours”) turned out to be 133.2 ± 0.7 mmol/L. Besides, the urine production result in data set [2] was “almost stopped”.
Turning to `N[C@@H](c1ccc(-c2ccccc2)cc1)[C@](O)(Cc1cc(OC2CCCCC2)ccn1)C(=O)O` [Example 36], in data set [1] (setting [3]), the IC50 stood at 0.0049 µM.
Take `COc1ccnc(C[C@](O)(C(=O)O)[C@@H](N)CC(C)C)c1C` [Example 22]: in data set [1] (setting [3]), the concentration for half-maximal inhibition (IC50) is 0.25 µM.
In the case of `NC(=O)CC[C@@H]1NC(=O)[C@H](Cc2ccccc2)NC(=O)[C@H](Cc2ccc(O)cc2)NC(=O)CCSSC[C@@H](C(=O)N2CCC[C@H]2C(=O)N[C@H](CCCN=C(N)N)C(=O)NCC(N)=O)NC(=O)[C@H](CC(N)=O)NC1=O` [dDAVP, Desmopressin, reference compound], in data set [2], the “change of plasma sodium level (in words)” value is “more significant decreases”; the “urine production after additional water loads” value is “not resumed”; the “plasma sodium level, 3 hours” value is recorded as 132.0 ± 0.4 mmol/L; the “plasma sodium level, 4 hours” value is 128.0 ± 0.3 mmol/L. The urine production result in data set [2] is reported as “almost stopped”.
Take `N[C@@H](c1ccc(Br)cc1)[C@](O)(Cc1cc(OC2CCCCC2)ccn1)C(=O)O` [Example 68]: the IC50 in data set [1] (value marked *: measured using a dihydrochloride salt of the compound of the Example) amounted to 0.0054 µM.
Regarding `N[C@@H](COc1ccc(F)cc1)[C@](O)(Cc1cc(NC2CCCCC2)ccn1)C(=O)O` [Example 91], the IC50 in data set [1] (setting [3]) worked out at 0.015 µM.
Same read-out and setting: in the case of `N[C@@H](c1ccc(N2CCOCC2)cc1)[C@](O)(Cc1cc(OC2CCCCC2)ccn1)C(=O)O` [Example 48] it was 0.0052 µM; in that of `CC(C)C[C@H](N)[C@](O)(Cc1cc2c(cn1)OCCO2)C(=O)O` [Example 62], 0.29 µM; in that of `CC(C)C[C@H](N)[C@](O)(Cc1cc(OCCOC2CCCCC2)ccn1)C(=O)O` [Example 97], 0.0028 µM.
Consider `N[C@@H](COCCC(F)(F)F)[C@](O)(Cc1cc(OC2CCCCC2)ccn1)C(=O)O` [Example 74], for which the IC50 in data set [1] (setting [3]) turned out to be 0.0053 µM.
In the case of `COCCCCC[C@H](N)[C@](O)(Cc1cc(OC2CCCCC2)ccn1)C(=O)O` [Example 75], in data set [1] (setting [3]), the IC50 came to 0.0012 µM.
In the case of `N[C@@H](COC1CCCCC1)[C@](O)(Cc1cc(OCCC2CC2)ccn1)C(=O)O` [Example 79], the 50% inhibitory concentration (IC50) in data set [1] (setting [3]) amounted to 0.033 µM.
As for `CCSC[C@H](N)[C@](O)(Cc1cc(O[C@H]2CC[C@H](C)CC2)ccn1)C(=O)O` [EX-b, (2R,3R)-3-amino-4-(ethylsulfanyl)-2-hydroxy-2-({4-[(trans-4-methylcyclohexyl)oxy]pyridin-2-yl}methyl)butanoic acid], in data set [2], the “change of plasma sodium level (in words)” value is on record as “slightly decreased”; the “urine production after additional water loads” value is given as “resumed after administration of the additional water loads”; the “plasma sodium level, 3 hours” value amounted to 140.4 ± 0.4 mmol/L; the “plasma sodium level, 4 hours” value was determined as 139.2 ± 0.5 mmol/L. For the same compound, the urine production entry in data set [2] was “almost stopped”.
Consider `CC(C)C[C@H](N)[C@](O)(Cc1cc2c(cn1)ncn2CCC1CCCCC1)C(=O)O` [Example 33], for which the IC50 in data set [1] (setting [3]) is 0.0025 µM.
The same measure, in the same setting: in the case of `COc1cc(F)cc(OC[C@H](N)[C@](O)(Cc2cc(OC3CCCCC3)ccn2)C(=O)O)c1` [Example 31] it was 0.027 µM; in that of `CC(C)CC[C@H](N)[C@](O)(Cc1cc(OC2CCCCC2)ccn1)C(=O)O` [Example 66], 0.0019 µM; in that of `COc1cc(C[C@](O)(C(=O)O)[C@@H](N)CC(C)C)ncc1COCc1ccccc1` [Example 57], 0.13 µM.
With `N[C@@H](c1ccc(C2CC2)cc1)[C@](O)(Cc1cc(OC2CCCCC2)ccn1)C(=O)O` [Example 23], the half-inhibitory concentration (IC50) in data set [1] (setting [3]) amounted to 0.0082 µM.
Still for that read-out and setting: for `N[C@@H](c1ccc(S(=O)(=O)C2CC2)cc1)[C@](O)(Cc1cc(OC2CCCCC2)ccn1)C(=O)O` [Example 24] the value was 0.0062 µM; for `Cc1ccc(OC[C@H](N)[C@](O)(Cc2cc(OC3CCCCC3)ccn2)C(=O)O)nc1` [Example 77], 0.0088 µM; for `COc1cccc(Oc2ccnc(C[C@](O)(C(=O)O)[C@@H](N)CC(C)C)c2)c1` [Example 101], 0.2 µM.
Still for that read-out and setting: in the case of `CC(C)C[C@H](N)[C@@]1(Cc2cc(O[C@H]3CC[C@H](C)CC3)ccn2)OC(C)(C)OC1=O` [Example 8, (5R)-5-[(1S)-1-amino-3-methylbutyl]-2,2-dimethyl-5-({4-[(trans-4-methylcyclohexyl)oxy]pyridin-2-yl}methyl)-1,3-dioxolan-4-one dihydrochloride] it was 0.17 µM; in that of `COCc1ccc(OC[C@H](N)[C@](O)(Cc2cc(OC3CCCCC3)ccn2)C(=O)O)cc1` [Example 30], 0.011 µM.
